These results are taken from patent publication US6716625B1, “Histidine kinases of Aspergillus and other fungal species, related compositions, and methods of use” (priority 1997, dated 2004).

SMILES strings stand for the structures. *1 amine or outer side, *2 acyl side, *3 side chain or, on linkers, in order; H or OH if unused. Where a SMILES comes first, the peptide text is derived from it. Bridges are numbered along the chain shown (N, C = ends). [ ]: non-standard residue; d: D form. The star is where a group is joined. Orn(4R-OH,5R-OH) = O=C([C@H](C[C@@H](O)[C@@H](O)N[*:3])N[*:1])[*:2]; hTyr(3S-OH,4S-OH) = N[C@H](C(=O)O)[C@H](O)[C@@H](O)c1ccc(O)cc1; Pro(3S-OH,4S-Me) = C[C@H]1CN[C@H](C(=O)O)[C@H]1O; Benzoyl(4-octyloxy) = CCCCCCCCOc1ccc(C(=O)*)cc1; Hyp = O=C(O)[C@@H]1C[C@@H](O)CN1

The test system of experiment [1] is C. albicans wild-type, ΔCOS-1/ΔCOS-1, hemizygous and reconstituted strains. Put plainly: Sensitivity of C. albicans COS-1 strains to antifungal drugs in liquid RPMI medium (NCCLS M27-T). In kind it is cell-based, Candida albicans. Here is the method:
For determination of viability and growth, each strain tested was grown from −80° C. stocks overnight at 37° C. in 50 ml of Sabouraud dextrose broth (30 g/L) (Difco, Catalog Number 0382-17-9) in 250 ml flasks with shaking at 180 rpm. Three hundred milliliter Nephelo flasks (Bellco) containing 60 ml medium were inoculated with 1×10^6 cells/ml (final concentration) from the starter culture and incubated at 37° C. with orbital shaking at 180 rpm. The optical density of each culture was determined periodically using a Klett-Summerson Photoelectric Colorimeter (Klett). For cell viability determination, overnight cultures were diluted and known numbers (as determined by hemacytometer counts) were plated onto agar-solidified SD medium and the numbers of resulting colonies determined. The sensitivity of each strain to a number of antifungal drugs in liquid medium was performed essentially as described in the National Committee for Clinical Laboratory Standards (NCCLS) 27T-protocol (Galgiani et al., NCCLS, 15:1-29 [1995]).

Experiment [2] concerns A. fumigatus wild-type and ΔFOS-1 strains. Nature of the experiment: Sensitivity to antifungals, variation of NCCLS M27T-protocol (microtiter broth). The class given is cell-based, Aspergillus fumigatus. Particulars: 1×RPMI medium, 48 hours, 37° C., 96-well plates. Here is the method:
Sensitivity to antifungals: To assess the differential sensitivities of the wild-type and ΔFOS-1 strains to a number of antifungal compounds, the minimum inhibitor concentration of amphotericin B, nikkomycin Z, benomyl, miconazole, ketoconazole, fluconazole, cilofungin, 5-fluorocytosine and calcofluor white M2R new against the wild-type and ΔFOS-1 strains was determined. This fungal sensitivity was determined using a variation of the National Committee for Clinical Laboratory Standards (NCCLS) M27T-protocol (Galgiani et al., NCCLS, 15:1-29 [1995]). Briefly, serial dilutions of the anti-fungal drugs were made in 100 μl 1×RPMI medium (Life Technologies) and an additional 100 μl 1×RPMI medium containing 2×10^4 conidia/ml of each strain was added to each well of 96-well microtiter plates. Plates were incubated for 48 hours with gentle shaking at 37° C. The amount of growth in each well was estimated using a inverted phase microscope.

Experiment [3] has the same test system. Nature of the experiment: Effect of oxidative stress compounds on hyphal growth. In kind it is cell-based, Aspergillus fumigatus. Particulars: agar-solidified MPG medium; diamide 0-2 mM or menadione 0-0.06 mM; 37° C., 3 days. Here is the method: Effect of oxidative stress compounds: To determine the effect of various oxidative stress-inducing compounds on hyphal growth in the wild-type and ΔFOS-1 strains, 2 μl water containing 1×10^3 conidia were placed as single spots onto 150 mm×15 mm petri plates containing 30 ml agar-solidified MPG medium. In addition, these agar plates contained either diamide (0-2 mM; Sigma) (an SH residue oxidant that attacks surface proteins; de Souza Pereira and Geibel, J. Mol. Cell Biochem., 201:17-24 [1999]), or menadione (0-0.06 mM; Sigma Aldrich) (a superoxide generator; Caricchio et al., Clin. Immunol., 93:65-74 [1999]). These plates were incubated at 37° C. for 3 days. Hyphal growth/extension rates were determined by recording the distance traveled by hyphal fronts after various times of incubation.

The subject of experiment [4] is A. fumigatus wild-type strain. Nature of the experiment: Dicarboximide drug sensitivity: hyphal extension on agar-solidified MPG medium, wild-type strain. The class given is cell-based, Aspergillus fumigatus. Particulars: mean ± standard deviation of at least 12 data points. Here is the method:
(§1) Although an understanding of the mechanism is not necessary in order to use the present invention, resistance to dicarboximide antifungals by a number of fungi appears to involve a histidine kinase mutation. […] To test if the ΔFOS-1 strain was also resistant to vinclozolin, iprodione and procymidone, the growth of wild-type and ΔFOS-1 strains on medium containing each drug was examined. Briefly, wild-type and ΔFOS-1 conidia (1×10^3 in 2 μl) were inoculated onto agar-solidified MPG medium containing 10 μg/ml vinclozolin or iprodione, or 12 μg/ml procymidone. Hyphal extension rates in mm/hr were recorded, and a mean determined based on at least 12 individual data points. Results are shown±standard deviation. P values were calculated using the Students t test (http://nimitz.mcs.kent.edu/˜blewis/stat/tTest.html).

Experiment [5] relates to A. fumigatus ΔFOS-1 strain. Nature of the experiment: Dicarboximide drug sensitivity: hyphal extension on agar-solidified MPG medium, ΔFOS-1 strain. In kind it is cell-based, Aspergillus fumigatus. Particulars: mean ± standard deviation of at least 12 data points. The method, then:
as §1

The subject of experiment [6] is OS-1 mutant strains of N. crassa. Particulars: Beever 1983; cited from earlier work.
The mark [7] stands for this setting: 10 μg/ml drug in agar-solidified MPG medium.
The mark [8] stands for this setting: 12 μg/ml drug in agar-solidified MPG medium.

As for `CC(=O)N1CCN(c2ccc(OCC3COC(Cn4ccnc4)(c4ccc(Cl)cc4Cl)O3)cc2)CC1` (stereo not drawn) [ketoconazole], the “Relative sensitivity of wild-type, ΔCOS-1/ΔCOS-1, hemizygous and reconstituted strains” value in experiment [1] is “equally sensitive”. The “Difference in minimum inhibitor concentration between wild-type and ΔFOS-1 strains” value in experiment [2] is recorded as “No differences in minimum inhibitor concentration”.
The corresponding values for `Clc1ccc(COC(Cn2ccnc2)c2ccc(Cl)cc2Cl)c(Cl)c1` (stereo not drawn) [miconazole] are “equally sensitive” and “No differences in minimum inhibitor concentration”.
The matching figures for `CCCCCCCCOc1ccc(C(=O)N[C@H]2C[C@@H](O)[C@@H](O)NC(=O)[C@@H]3[C@@H](O)[C@@H](C)CN3C(=O)[C@H]([C@@H](C)O)NC(=O)[C@H]([C@H](O)[C@@H](O)c3ccc(O)cc3)NC(=O)[C@@H]3C[C@@H](O)CN3C(=O)[C@H]([C@@H](C)O)NC2=O)cc1` [cilofungin] ({Benzoyl(4-octyloxy)}-[Orn(4R-OH,5R-OH)]T[Hyp][hTyr(3S-OH,4S-OH)]T[Pro(3S-OH,4S-Me)]; lactam 1-C): “equally sensitive” and “No differences in minimum inhibitor concentration”.
The corresponding values for `C[C@@H]([C@H](N)C(=O)N[C@H](C(=O)O)[C@H]1O[C@@H](n2ccc(=O)[nH]c2=O)[C@H](O)[C@@H]1O)[C@H](O)c1ccc(O)cn1` [nikkomycin Z] are “equally sensitive” and “No differences in minimum inhibitor concentration”.
In the case of `CC1=CC(=O)c2ccccc2C1=O` [menadione], the “Difference in hyphal growth/extension rates between wild-type and ΔFOS-1 strains” value in experiment [3] is on record as “No differences in hyphal growth/extension rates”.
`C=CC1(C)OC(=O)N(c2cc(Cl)cc(Cl)c2)C1=O` (stereo not drawn) [vinclozolin]: the “Hyphal extension rate, wild-type” value in experiment [4] (setting [7]) is 0.34 ± 0.11 mm/hr. The “Relative sensitivity of wild-type, ΔCOS-1/ΔCOS-1, hemizygous and reconstituted strains” value in experiment [1] is on record as “equally sensitive”. Also, the “Hyphal extension rate, ΔFOS-1” value in experiment [5] (setting [7]) came to 0.50 ± 0.05 mm/hr. Moreover, the “Resistance of OS-1 mutant strains” value in experiment [6] is listed as “highly resistant”.
On to `CC(C)NC(=O)N1CC(=O)N(c2cc(Cl)cc(Cl)c2)C1=O` [iprodione], for which the “Hyphal extension rate, wild-type” value in experiment [4] (setting [7]) is 0.29 ± 0.11 mm/hr. Moreover, the “Hyphal extension rate, ΔFOS-1” value in experiment [5] (setting [7]) worked out at 0.52 ± 0.03 mm/hr.
Consider `CN(C)C(=O)/N=N/C(=O)N(C)C` [diamide], for which, in experiment [3], the “Difference in hyphal growth/extension rates between wild-type and ΔFOS-1 strains” value is reported as “No differences in hyphal growth/extension rates”.
For `CCCCNC(=O)n1c(NC(=O)OC)nc2ccccc21` [benomyl], the “Relative sensitivity of wild-type, ΔCOS-1/ΔCOS-1, hemizygous and reconstituted strains” value in experiment [1] was “equally sensitive”. In addition, the “Difference in minimum inhibitor concentration between wild-type and ΔFOS-1 strains” value in experiment [2] is listed as “No differences in minimum inhibitor concentration”.
For the molecule `OC(Cn1cncn1)(Cn1cncn1)c1ccc(F)cc1F` [fluconazole], the “Relative sensitivity of wild-type, ΔCOS-1/ΔCOS-1, hemizygous and reconstituted strains” value in experiment [1] was “equally sensitive”. Moreover, in experiment [2], the “Difference in minimum inhibitor concentration between wild-type and ΔFOS-1 strains” value was “No differences in minimum inhibitor concentration”.
Consider `O=S(=O)([O-])c1cc(Nc2nc(Nc3ccccc3)nc(N(CCO)CCO)n2)ccc1/C=C/c1ccc(Nc2nc(Nc3ccccc3)nc(N(CCO)CCO)n2)cc1S(=O)(=O)[O-].[Na+].[Na+]` [calcofluor white M2R new], for which the “Difference in minimum inhibitor concentration between wild-type and ΔFOS-1 strains” value in experiment [2] is “No differences in minimum inhibitor concentration”.
As for `Nc1nc(=O)[nH]cc1F` [5-fluorocytosine], in experiment [1], the “Relative sensitivity of wild-type, ΔCOS-1/ΔCOS-1, hemizygous and reconstituted strains” value was “equally sensitive”. In addition, the “Difference in minimum inhibitor concentration between wild-type and ΔFOS-1 strains” value in experiment [2] is “No differences in minimum inhibitor concentration”.
Consider `CC12CC1(C)C(=O)N(c1cc(Cl)cc(Cl)c1)C2=O` (stereo not drawn) [procymidone], for which, in experiment [4] (setting [8]), the “Hyphal extension rate, wild-type” value is 0.21 ± 0.13 mm/hr. The “Hyphal extension rate, ΔFOS-1” value in experiment [5] (setting [8]) was 0.48 ± 0.08 mm/hr.
On to `C[C@@H]1[C@H](O)[C@@H](C)/C=C/C=C/C=C/C=C/C=C/C=C/C=C/[C@H](O[C@@H]2O[C@H](C)[C@@H](O)[C@H](N)[C@@H]2O)C[C@@H]2O[C@](O)(C[C@@H](O)C[C@@H](O)[C@H](O)CC[C@@H](O)C[C@@H](O)CC(=O)O[C@H]1C)C[C@H](O)[C@H]2C(=O)O` [amphotericin B], for which the “Relative sensitivity of wild-type, ΔCOS-1/ΔCOS-1, hemizygous and reconstituted strains” value in experiment [1] is reported as “equally sensitive”. The “Difference in minimum inhibitor concentration between wild-type and ΔFOS-1 strains” value in experiment [2] was “No differences in minimum inhibitor concentration”.
